Measured values published in US20100216732A1, “Azithromycin for the treatment of nodular acne” (priority 2006, published 2010).
Where “and” joins values, the source holds several entries; their conditions need not be identical. Equal values may be shown once.

Assays:
[1] = system: severe acne vulgaris with multiple nodules; test: Open label clinical study of daily or pulsed oral azithromycin, nodule counts over 3 months; type: in vivo, human; settings: for Nodules in the 2 non-responding patients two months after initiation of therapy: single patients
From the text: The invention is further illustrated by the following non-limiting examples. In the examples, patients included in the study were male or female subjects of any race, 16 years of age or older. presenting with 20-60 inflammatory lesions (papules or pustules), 20 to 150 non-inflammatory lesions (comedones or whiteheads), and 3 to 10 nodules. Patients having severe acne vulgaris with multiple nodules were enrolled in an open label clinical study in which each patient received a daily oral dose of 250 mg of azithromycin for the 3-month duration of the study. Lesion counts were recorded at baseline before the initiation of treatment and at 1, 2, and 3 months following initiation of treatment. […] These 2 patients had 9 and 8 nodules, respectively, at baseline and 8 and 13 nodules, respectively two months after initiation of therapy. Of the favorable responders, two patients who began the study with 3 nodules had 2 nodules at the end of the three month study. The remaining 14 patients who responded favorably to treatment had on average 6.7 nodules at baseline (range 4 to 10 nodules) and improved to having no nodules (10 patients) or at most 1 nodule (4 patients) by the end of the three month course of treatment. Another set of patients with severe acne vulgaris was enrolled in an open label clinical study as in Example 1, except that each patient received a daily oral dose of 250 mg of azithromycin for one week followed by one week of no azithromycin, which cycle was repeated for the 3-month duration of the study. […] These 2 patients had 6 and 10 nodules, respectively, at baseline and 5 and 8 nodules, respectively, two months after initiation of therapy. Three patients had partial clearing of nodules during the study. These patients had 9, 10, and 6 nodules, respectively, at baseline and 3, 4, and 2 nodules, respectively, at the end of the study. Another set of patients with severe acne vulgaris was enrolled in an open label clinical study as in Example 1, except that each patient received a daily oral dose of 125 mg of azithromycin for the 3-month duration of the study. […] These 2 patients had 8 and 3 nodules, respectively, at baseline and 10 and 4 nodules, respectively two months after initiation of therapy. The 18 patients who responded favorably to treatment had on average 5.1 nodules at baseline (range 3 to 8 nodules) and improved to having no nodules (13 patients) or at most 1 nodule (5 patients) at the end of the three month course of treatment.

[2] = system: lesions of inflammatory acne; settings: pulse-dose regimen, three-times-weekly, versus daily doxycycline, erythromycin, minocycline, tetracycline; cited from earlier work
[3] = system: moderate to severe inflammatory acne; settings: 500 mg for three consecutive days in a 10 day cycle, with topical erythromycin; cited from earlier work
nodular cystic acne = settings: Pigatto study, in words; cited from earlier work
[4] = Example 1, 250 mg/day oral, 3 months, 18 patients
[5] = Example 2, 250 mg/day every other week, 3 months, 18 patients
[6] = Example 3, 125 mg/day oral, 3 months, 20 patients
[7] = Total Examples 1 to 3, 56 patients

CC[C@H]1OC(=O)[C@H](C)[C@@H](O[C@H]2C[C@@](C)(OC)[C@@H](O)[C@H](C)O2)[C@H](C)[C@@H](O[C@@H]2O[C@H](C)C[C@H](N(C)C)[C@H]2O)[C@](C)(O)C[C@@H](C)CN(C)[C@H](C)[C@@H](O)[C@]1(C)O [azithromycin, 9-deoxo-9a-aza-9a-methyl-9a-homoerythromycin A]
Number of patients that did not respond favorably to treatment ([1]; Example 1, 250 mg daily oral, of 18 patients in study longer than one month): 2
Number of patients improved to at most 1 nodule by end of three month treatment ([1]; Example 1, 250 mg daily, of remaining 14 favorable responders, average 6.7 nodules at baseline): 4 patients
Number of patients improved to having no nodules by end of three month treatment ([1]; Example 1, 250 mg daily, of remaining 14 favorable responders, average 6.7 nodules at baseline (range 4 to 10)): 10 patients
Nodules in the 2 non-responding patients two months after initiation of therapy ([1]; Example 1, 250 mg daily, 9 and 8 nodules at baseline, respectively): 8 nodules and 13 nodules
Nodules at the end of the three month study in two favorable responders ([1]; Example 1, 250 mg daily, two patients who began with 3 nodules): 2 nodules
Number of good responders [1, 4]: 16
Percentage of good responders [1, 4]: 88.9%
Percentage of nodules cleared in good responders ([1]; Example 1, 250 mg/day, 16 good responders): 92.0%
Nodules in good responders after treatment ([1]; Example 1, 250 mg/day, 16 good responders, nodules before 100): 8
Percentage of nodules cleared ([1]; Example 1, 250 mg/day, all 18 patients): 75.2%
Nodules remaining after treatment ([1]; Example 1, 250 mg/day, all 18 patients, number of nodules before 117): 29
Number of patients improved to at most 1 nodule at end of three month treatment ([1]; Example 2, 250 mg daily every other week, of remaining 13 favorable responders, average 6.2 nodules at baseline): 3 patients
Number of patients improved to having no nodules at end of three month treatment ([1]; Example 2, 250 mg daily every other week, of remaining 13 favorable responders, average 6.2 nodules at baseline (range 3 to 10)): 10 patients
Nodules in the 2 non-responding patients two months after initiation of therapy ([1]; Example 2, 250 mg daily every other week, 6 and 10 nodules at baseline, respectively): 5 nodules and 8 nodules
Nodules at the end of the study in three patients with partial clearing ([1]; Example 2, 250 mg daily every other week, single patients, 9, 10 and 6 nodules at baseline, respectively): 3 nodules and 4 nodules and 2 nodules
Number of patients that did not respond favorably to treatment ([1]; Example 2, 250 mg daily one week on, one week off, of 18 patients): 2
Number of good responders [1, 5]: 16
Percentage of good responders [1, 5]: 88.9%
Percentage of nodules cleared in good responders ([1]; Example 2, 250 mg/day every other week, 16 good responders): 87.9%
Nodules in good responders after treatment ([1]; Example 2, 250 mg/day every other week, 16 good responders, nodules before 99): 12
Percentage of nodules cleared ([1]; Example 2, 250 mg/day every other week, all 18 patients): 78.3%
Nodules remaining after treatment ([1]; Example 2, 250 mg/day every other week, all 18 patients, number of nodules before 115): 25
Number of patients that did not respond favorably to treatment ([1]; Example 3, 125 mg daily oral, of 20 patients): 2
Number of patients improved to at most 1 nodule at end of three month treatment ([1]; Example 3, 125 mg daily, of 18 favorable responders, average 5.1 nodules at baseline): 5 patients
Number of patients improved to having no nodules at end of three month treatment ([1]; Example 3, 125 mg daily, of 18 favorable responders, average 5.1 nodules at baseline (range 3 to 8)): 13 patients
Nodules in the 2 non-responding patients two months after initiation of therapy ([1]; Example 3, 125 mg daily, 8 and 3 nodules at baseline, respectively): 10 nodules and 4 nodules
Number of good responders [1, 6]: 18
Percentage of good responders [1, 6]: 90.0%
Percentage of nodules cleared in good responders ([1]; Example 3, 125 mg/day, 18 good responders): 94.6%
Nodules in good responders after treatment ([1]; Example 3, 125 mg/day, 18 good responders, nodules before 92): 5
Percentage of nodules cleared ([1]; Example 3, 125 mg/day, all 20 patients): 81.6%
Nodules remaining after treatment ([1]; Example 3, 125 mg/day, all 20 patients, number of nodules before 103): 19
Nodules in good responders after treatment ([1]; Total Examples 1 to 3, 50 good responders, nodules before 291): 25
Number of good responders [1, 7]: 50
Percentage of nodules cleared [1, 7]: 78.2%
Nodules remaining after treatment ([1]; Total Examples 1 to 3, 56 patients, number of nodules before 335): 73
Efficacy in treating nodular acne vulgaris, including severe nodular acne vulgaris ([1]; systemic administration, Examples 1 to 3): highly efficacious
Efficacy in treating lesions of inflammatory acne [2]: as effective as other antibiotics tested
Efficacy in treating moderate to severe acne vulgaris [3]: effective

CC1=C(/C=C/C(C)=C/C=C/C(C)=C\C(=O)O)C(C)(C)CCC1 [isotretinoin]
Efficacy in treating nodular cystic acne (nodular cystic acne): highly efficacious
